{"source": "patent US11389423B2", "about": "“Pharmaceutical composition, excipient for the composition and use of the composition” (priority 2018, dated 2022)", "key": {"[1]": {"tested_on": "polychromatic erythrocytes", "settings": "rats male and female, 20 mg/kg intraperitoneally", "protocol": "To perform the micronucleus test (Schmid, 1976), different groups of rats (male and female; n=10) received three doses of CBD (500, 1000 and 2000 mg/kg) orally. The negative control group received placebo by gavage and the positive control was treated with cyclophosphamide monohydrate (20 mg/kg—Sigma-Aldrich) intraperitoneally. After 24 hours (cyclophosphamide) and 48 hours (CBD-SINT and vehicle) the end of treatments, the animals were euthanized by decapitation. The femurs were removed, the proximal epiphysis was removed to expose the medullary canal and, with the aid of a 13×4.5 mm needle and 3 mL NaCl solution (150 mM), the marrow was removed, washing the medullary canal with NaCl solution. The material was transferred to glass tubes and centrifuged at 1000 rpm/5 min. After centrifugation, the supernatant was discarded, and the deposit was resuspended with a 4% formaldehyde solution and slightly homogenized with the aid of a Pasteur pipette. A drop of this cell suspension was placed on a clean, dry slide, and then the smear was performed. The slides were dried at room temperature and, after 24 hours, stained with Leishman eosin-methylene blue and subjected to microscopic analysis. To determine the number of micronuclei, 2000 polychromatic erythrocytes were counted per animal (1000 in each slide) using an optical microscope, at 400× magnification. The analysis of the slides was blind and performed by a single evaluator."}, "[2]": {"tested_on": "DNA of male and female rats", "settings": "rats male and female, 20 mg/kg intraperitoneally, 24 hours, positive control", "protocol": "The negative control group received placebo by gavage and the positive control was treated with cyclophosphamide monohydrate (20 mg/kg—Sigma-Aldrich) intraperitoneally."}}, "data": [{"smiles": "O=P1(N(CCCl)CCCl)NCCCO1", "note": "(stereo not shown) [cyclophosphamide, cyclophosphamide monohydrate, reference compound]", "values": [{"measurement": "average number of MNPCE", "setting": "[1]; 24 hours, positive control (C+)", "value": "significant increase"}, {"measurement": "ratio of polychromatic/normochromatic erythrocytes (PCE/NCE ratio)", "setting": "[1]; positive control", "value": "significantly changed"}, {"measurement": "increase in the frequency of damage", "setting": "[2]", "value": "approximately 100%"}, {"measurement": "increase in the index of damage", "setting": "[2]", "value": "approximately 100%"}]}]}
